Where only a bound is given, the exact number is not on record here.

Data on 31 compounds can be found in patent US20230265103A1 (TME Therapeutics LLC, priority 2021, published 2023).

The assay addresses T1, PIKFYVE (Homo sapiens, UniProt Q9Y2I7).
T1 construct: purchased Eurofins (KINOMEscan); host or cells: E. coli BL21-derived (T7 phage display) or HEK-293
Briefly: KINOMEscan Kinase Assay (Eurofins), PIKFYVE inhibitory activity. The format is binding. The note with it: for IC50: KINOMEscan; for inhibition at 0.001 µM: @ 1 nM.

T1 sequence (Q9Y2I7 whole entry): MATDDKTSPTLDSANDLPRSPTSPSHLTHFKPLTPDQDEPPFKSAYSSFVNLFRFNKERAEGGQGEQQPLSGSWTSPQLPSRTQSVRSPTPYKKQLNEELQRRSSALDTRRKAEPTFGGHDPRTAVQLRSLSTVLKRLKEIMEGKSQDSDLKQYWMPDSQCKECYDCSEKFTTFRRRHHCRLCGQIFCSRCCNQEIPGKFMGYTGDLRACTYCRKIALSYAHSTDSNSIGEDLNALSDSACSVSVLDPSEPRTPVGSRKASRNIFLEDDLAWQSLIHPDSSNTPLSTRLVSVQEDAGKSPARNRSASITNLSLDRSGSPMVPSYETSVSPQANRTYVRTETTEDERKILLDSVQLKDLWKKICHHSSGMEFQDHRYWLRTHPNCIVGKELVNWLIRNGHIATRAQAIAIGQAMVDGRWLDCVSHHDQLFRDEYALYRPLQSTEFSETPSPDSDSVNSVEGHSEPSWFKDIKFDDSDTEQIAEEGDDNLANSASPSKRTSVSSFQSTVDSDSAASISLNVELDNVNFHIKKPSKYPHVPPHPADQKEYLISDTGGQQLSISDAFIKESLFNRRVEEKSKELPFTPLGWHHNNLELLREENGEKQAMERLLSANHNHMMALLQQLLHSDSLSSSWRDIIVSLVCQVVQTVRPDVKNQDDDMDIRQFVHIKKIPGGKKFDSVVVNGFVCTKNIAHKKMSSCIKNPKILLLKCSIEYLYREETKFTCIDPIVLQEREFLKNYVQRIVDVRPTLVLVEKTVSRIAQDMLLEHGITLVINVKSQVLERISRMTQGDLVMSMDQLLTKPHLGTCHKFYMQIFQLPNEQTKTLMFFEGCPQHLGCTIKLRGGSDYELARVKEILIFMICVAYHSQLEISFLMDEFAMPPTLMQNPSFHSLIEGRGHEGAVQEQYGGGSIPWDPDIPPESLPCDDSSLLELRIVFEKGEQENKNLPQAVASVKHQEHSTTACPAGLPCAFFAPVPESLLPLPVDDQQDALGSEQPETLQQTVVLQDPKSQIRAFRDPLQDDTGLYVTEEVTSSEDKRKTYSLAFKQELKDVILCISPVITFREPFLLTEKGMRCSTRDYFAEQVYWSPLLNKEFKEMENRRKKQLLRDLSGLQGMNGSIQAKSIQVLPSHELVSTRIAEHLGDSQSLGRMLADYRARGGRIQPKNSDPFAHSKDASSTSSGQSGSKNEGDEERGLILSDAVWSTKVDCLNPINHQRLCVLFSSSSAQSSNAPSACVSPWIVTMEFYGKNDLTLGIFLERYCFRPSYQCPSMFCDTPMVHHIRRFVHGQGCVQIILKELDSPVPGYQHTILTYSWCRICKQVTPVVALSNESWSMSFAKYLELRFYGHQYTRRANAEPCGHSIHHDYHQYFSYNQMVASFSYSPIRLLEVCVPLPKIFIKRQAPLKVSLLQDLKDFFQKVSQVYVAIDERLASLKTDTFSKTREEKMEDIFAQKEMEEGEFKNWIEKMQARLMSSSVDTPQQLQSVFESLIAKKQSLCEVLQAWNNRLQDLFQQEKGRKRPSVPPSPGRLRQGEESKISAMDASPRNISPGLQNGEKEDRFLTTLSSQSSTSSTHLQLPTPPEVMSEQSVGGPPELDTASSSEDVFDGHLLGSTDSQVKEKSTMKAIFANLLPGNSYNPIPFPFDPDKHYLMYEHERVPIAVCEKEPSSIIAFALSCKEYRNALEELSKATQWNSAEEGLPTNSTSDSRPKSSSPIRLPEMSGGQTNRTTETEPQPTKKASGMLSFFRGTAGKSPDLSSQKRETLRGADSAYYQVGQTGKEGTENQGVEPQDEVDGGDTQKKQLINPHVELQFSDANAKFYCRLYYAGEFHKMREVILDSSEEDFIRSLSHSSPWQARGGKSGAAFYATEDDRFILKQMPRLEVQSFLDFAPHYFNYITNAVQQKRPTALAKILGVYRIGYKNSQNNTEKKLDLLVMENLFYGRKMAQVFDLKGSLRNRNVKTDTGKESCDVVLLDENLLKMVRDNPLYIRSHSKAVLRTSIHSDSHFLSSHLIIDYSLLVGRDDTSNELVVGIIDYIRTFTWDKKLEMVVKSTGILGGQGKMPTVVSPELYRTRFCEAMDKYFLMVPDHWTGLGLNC

The term IC50 denotes the midpoint of a concentration-inhibition curve. On to `Cc1cccc(-c2ccn(-c3nc(N4CCOCC4)c4sc(CN5CC(N(C)C)C5)cc4n3)n2)c1` [Ex. 32, N,N-dimethyl-1-((4-morpholino-2-(3-(m-tolyl)-1H-pyrazol-1-yl)thieno[3,2-d]pyrimidin-6-yl)methyl)azetidin-3-amine], for which the IC50 was < 1 nM.
Turning to `Cc1cccc(-c2ccn(-c3nc(N4CCOCC4)c4sc(CN5CCC(N6CCOCC6)CC5)cc4n3)n2)c1` [Ex. 33, 4-(1-((4-morpholino-2-(3-(m-tolyl)-1H-pyrazol-1-yl)thieno[3,2-d]pyrimidin-6-yl)methyl)piperidin-4-yl)morpholine], the IC50 is > 100 nM.
Same read-out and setting: as for `Cc1cccc(-c2ccn(-c3nc(N4CCOCC4)c4nc(CN5CCN(C)CC5)sc4n3)n2)c1` [Ex. 34, 4-(2-((4-methylpiperazin-1-yl)methyl)-5-(3-(m-tolyl)-1H-pyrazol-1-yl)thiazolo[5,4-d]pyrimidin-7-yl)morpholine], the figure is 1 to 10 nM.
Usually inhibition stands for the drop in the measured response relative to a control, in per cent. `Cc1cccc(-c2ccn(-c3nc(N4CCOCC4)c4nc(CN5CCN(C)CC5)[nH]c4n3)n2)c1` [Ex. 35, 4-(8-((4-methylpiperazin-1-yl)methyl)-2-(3-(m-tolyl)-1H-pyrazol-1-yl)-9H-purin-6-yl)morpholine] yielded an inhibition at 0.001 µM of 13%.
For `Cc1cccc(-c2ccn(-c3nc(N4CCOCC4)c4nc(CN5CC(N6CCCC6)C5)[nH]c4n3)n2)c1` [Ex. 36, 4-(8-((3-(pyrrolidin-1-yl)azetidin-1-yl)methyl)-2-(3-(m-tolyl)-1H-pyrazol-1-yl)-9H-purin-6-yl)morpholine], the IC50 was < 1 nM.
Regarding `Cc1cccc(-c2ccn(-c3nc(N4CCOCC4)c4sc(-c5cnn(C)c5)cc4n3)n2)c1` [Ex. 37, 4-(6-(1-methyl-1H-pyrazol-4-yl)-2-(3-(m-tolyl)-1H-pyrazol-1-yl)thieno[3,2-d]pyrimidin-4-yl)morpholine], the IC50 is < 1 nM.
On the same count and under the same terms, under `Cc1cccc(-c2ccn(-c3cc(N4CCOCC4)c4nc(CN5CCOCC5)[nH]c4n3)n2)c1` [Ex. 38, 4-((7-morpholino-5-(3-(m-tolyl)-1H-pyrazol-1-yl)-3H-imidazo[4,5-b]pyridin-2-yl)methyl)morpholine] stands < 1 nM.
Same read-out and setting: as for `Cc1cccc(-c2ccn(-c3cc(N4CCOCC4)c4nc(CN5CCN(C)CC5)[nH]c4n3)n2)c1` [Ex. 39, 4-(2-((4-methylpiperazin-1-yl)methyl)-5-(3-(m-tolyl)-1H-pyrazol-1-yl)-3H-imidazo[4,5-b]pyridin-7-yl)morpholine], the figure is < 1 nM.
`Cc1cccc(-c2ccn(-c3cc(N4CCOCC4)c4nc(CN5CC[C@@H](N(C)C)C5)[nH]c4n3)n2)c1` [Ex. 41, (R)—N,N-dimethyl-1-((7-morpholino-5-(3-(m-tolyl)-1H-pyrazol-1-yl)-3H-imidazo[4,5-b]pyridin-2-yl)methyl)pyrrolidin-3-amine]: the half-maximal inhibitory concentration (IC50) is < 1 nM.
`Cc1cccc(-c2ccn(-c3cc(N4CCOCC4)c4nc(CN5CCC(N6CCOCC6)CC5)[nH]c4n3)n2)c1` [Ex. 42, 4-(1-((7-morpholino-5-(3-(m-tolyl)-1H-pyrazol-1-yl)-3H-imidazo[4,5-b]pyridin-2-yl)methyl)piperidin-4-yl)morpholine]: the inhibition at 1 µM (@ 1000 nM) came out at 98%.
As to `Cc1cccc(-c2ccn(-c3nc(N4CCOCC4)c4nc(CN5CCC(N6CCC6)C(F)C5)[nH]c4n3)n2)c1` (stereo not shown) [Ex. 43, 4-(8-((4-(azetidin-1-yl)-3-fluoropiperidin-1-yl)methyl-2-(3-m-tolyl)-1H-pyrazol-1-yl)-9H-purin-6-yl)morpholine], the half-inhibitory concentration (IC50) was < 1 nM.
Same read-out and setting: as for `Cc1cccc(-c2ccn(-c3nc(N4CCOCC4)c4nc(-c5cnn(C)c5)[nH]c4n3)n2)c1` [Ex. 44, 4-(8-(1-methyl-1H-pyrazol-4-yl)-2-(3-(m-tolyl)-1H-pyrazol-1-yl)-9H-purin-6-yl)morpholine], the figure is < 1 nM; as for `Cc1cccc(-c2ccn(-c3cc(N4CCOCC4)c4nc(CN5CC[C@H](N(C)C)C5)[nH]c4n3)n2)c1` [Ex. 46, (S)—N,N-dimethyl-1-((7-morpholino-5-(3-(m-tolyl)-1H-pyrazol-1-yl)-3H-imidazo[4,5-b]pyridin-2-yl)methyl)pyrrolidin-3-amine], < 1 nM; as for `Cc1cccc(-c2ccn(-c3nc(N4CCOCC4)c4nc(CN5CCC(N6CCC6)C(F)C5)sc4n3)n2)c1` (stereo not shown) [Ex. 47, 4-(2-((4-(azetidin-1-yl)-3-fluoropiperidin-1-yl)methyl)-5-(3-(m-tolyl)-1H-pyrazol-1-yl)thiazolo[5,4-d]pyrimidin-7-yl)morpholine], < 1 nM.
Still for that read-out and setting: under `Cc1cccc(-c2ccn(-c3cc(N4CCOCC4)c4nc(CN5CC(N(C)C)C5)[nH]c4n3)n2)c1` [Ex. 48, N,N-dimethyl-1-((7-morpholino-5-(3-(m-tolyl)-1H-pyrazol-1-yl)-3H-imidazo[4,5-b]pyridin-2-yl)methyl)azetidin-3-amine] stands 1 to 10 nM; under `Cc1cccc(-c2ccn(-c3nc(N4CCOCC4)c4nc(-c5cnn(C)c5)sc4n3)n2)c1` [Ex. 49, 4-(2-(1-methyl-1H-pyrazol-4-yl)-5-(3-(m-tolyl)-1H-pyrazol-1-yl)thiazolo[5,4-d]pyrimidin-7-yl)morpholine], < 1 nM.
As for `Cc1cccc(-c2ccn(-c3nc(N4CCOCC4)c4sc(CN5CCC6(OCCO6)C(F)C5)cc4n3)n2)c1` (stereo not shown) [Ex. 50, 6-fluoro-8-((4-morpholino-2-(3-(m-tolyl)-1H-pyrazol-1-yl)thieno[3,2-d]pyrimidin-6-yl)methyl)-1,4-dioxa-8-azaspiro[4.5]decane], the half-inhibitory concentration (IC50) was 1 to 10 nM.
On the same count and under the same terms, under `Cc1cccc(-c2ccn(-c3nc(N4CCOCC4)c4sc(CN5CCC(N(C)C)C(F)C5)cc4n3)n2)c1` (stereo not shown) [Ex. 51, 3-fluoro-N,N-dimethyl-1-((4-morpholino-2-(3-(m-tolyl)-1H-pyrazol-1-yl)thieno[3,2-d]pyrimidin-6-yl)methyl)piperidin-4-amine] stands < 1 nM; under `Cc1cccc(-c2ccn(-c3cc(N4CCOCC4)c4nc(CN5CCC(N(C)C)C(F)C5)[nH]c4n3)n2)c1` (stereo not shown) [Ex. 52, 3-fluoro-N,N-dimethyl-1-((7-morpholino-5-(3-(m-tolyl)-1H-pyrazol-1-yl)-3H-imidazo[4,5-b]pyridin-2-yl)methyl)piperidin-4-amine], < 1 nM.
Consider `Cc1cccc(-c2ccn(-c3nc(N4CCOCC4)c4sc(CO)c(C)c4n3)n2)c1` [Ex. 53, (7-methyl-4-morpholino-2-(3-(m-tolyl)-1H-pyrazol-1-yl)thieno[3,2-d]pyrimidin-6-yl)methanol], for which the inhibition at 0.001 µM amounted to 17%.
As for `Cc1cccc(-c2ccn(-c3nc(N4CCOCC4)c4sc(CN5CCN(S(C)(=O)=O)CC5)c(C)c4n3)n2)c1` [Ex. 54, 4-(7-methyl-6-((4-(methylsulfonyl)piperazin-1-yl)methyl)-2-(3-(m-tolyl)-1H-pyrazol-1-yl)thieno[3,2-d]pyrimidin-4-yl)morpholine], the concentration for half-maximal inhibition (IC50) was < 1 nM.
With `Cc1cccc(-c2ccn(-c3nc(N4CCOCC4)c4sc(CN5CCC(N(C)C)C(F)C5)c(C)c4n3)n2)c1` (stereo not shown) [Ex. 55, 3-fluoro-N,N-dimethyl-1-((7-methyl-4-morpholino-2-(3-(m-tolyl)-1H-pyrazol-1-yl)thieno[3,2-d]pyrimidin-6-yl)methyl)piperidin-4-amine], the concentration for half-maximal inhibition (IC50) was < 1 nM.
Where the note is “@ 3 nM”, `Cc1cccc(-c2ccn(-c3nc(N4CCOCC4)c4nc(CN5CCOCC5)n(C)c4n3)n2)c1` [Ex. 56, 4-((9-methyl-6-morpholino-2-(3-(m-tolyl)-1H-pyrazol-1-yl)-9H-purin-8-yl)methyl)morpholine] displayed an inhibition at 0.003 µM of 94%.
Compound `Cc1cccc(-c2ccn(-c3nc(N4CCOCC4)c4nc(CN5CCN(S(C)(=O)=O)CC5)n(C)c4n3)n2)c1` [Ex. 57, 4-(9-methyl-8-((4-(methylsulfonyl)piperazin-1-yl)methyl)-2-(3-(m-tolyl)-1H-pyrazol-1-yl)-9H-purin-6-yl)morpholine] gave an IC50 of 1 to 10 nM.
Consider `Cc1cccc(-c2ccn(-c3nc(N4CCOCC4)c4sc(CN5CCC(N6CCC6)C(F)C5)c(C)c4n3)n2)c1` (stereo not shown) [Ex. 58, 4-(6-((4-(azetidin-1-yl)-3-fluoropiperidin-1-yl)methyl)-7-methyl-2-(3-(m-tolyl)-1H-pyrazol-1-yl)thieno[3,2-d]pyrimidin-4-yl)morpholine], for which the concentration for half-maximal inhibition (IC50) is < 1 nM.
In turn, `Cc1cccc(-c2ccn(-c3nc(N4CCOCC4)c4sc(C(=O)N5CCN(C)CC5)c(C)c4n3)n2)c1` [Ex. 59, (7-methyl-4-morpholino-2-(3-(m-tolyl)-1H-pyrazol-1-yl)thieno[3,2-d]pyrimidin-6-yl)(4-methylpiperazin-1-yl)methanone] yielded an IC50 of 1 to 10 nM.
`Cc1cccc(-c2ccn(-c3nc(N4CCOCC4)c4sc(C(=O)N5CC[C@@H](N(C)C)C5)c(C)c4n3)n2)c1` [Ex. 60, (R)-(3-(dimethylamino)pyrrolidin-1-yl)(7-methyl-4-morpholino-2-(3-(m-tolyl)-1H-pyrazol-1-yl)thieno[3,2-d]pyrimidin-6-yl)methanone]: the half-inhibitory concentration (IC50) was 1 to 10 nM.
The same measure, in the same setting: as for `Cc1cccc(-c2ccn(-c3nc(N4CCOCC4)c4sc(C(=O)N5CCC(C(C)(C)O)CC5)c(C)c4n3)n2)c1` [Ex. 61, (4-(2-hydroxypropan-2-yl)piperidin-1-yl)(7-methyl-4-morpholino-2-(3-(m-tolyl)-1H-pyrazol-1-yl)thieno[3,2-d]pyrimidin-6-yl)methanone], the figure is < 1 nM; as for `Cc1cccc(-c2ccn(-c3nc(N4CCOCC4)c4nc(CN5CCC(C(C)(C)O)CC5)n(C)c4n3)n2)c1` [Ex. 62, 2-(1-((9-methyl-6-morpholino-2-(3-(m-tolyl)-1H-pyrazol-1-yl)-9H-purin-8-yl)methyl)piperidin-4-yl)propan-2-ol], 1 to 10 nM.
`Cc1cccc(-c2ccn(-c3nc(N4CCOCC4)c4sc(CN5CC(C6CCOCC6)C5)c(C)c4n3)n2)c1` [Ex. 63, 4-(7-methyl-6-((3-(tetrahydro-2H-pyran-4-yl)azetidin-1-yl)methyl)-2-(3-(m-tolyl)-1H-pyrazol-1-yl)thieno[3,2-d]pyrimidin-4-yl)morpholine] registered an IC50 of 1 to 10 nM.
The same measure, in the same setting: under `COC(C)(C)c1sc2c(N3CCOCC3)nc(-n3ccc(-c4cccc(C)c4)n3)nc2c1C` [Ex. 64, 4-(6-(2-methoxypropan-2-yl)-7-methyl-2-(3-(m-tolyl)-1H-pyrazol-1-yl)thieno[3,2-d]pyrimidin-4-yl)morpholine] stands 1 to 10 nM.
